According to patent US9302999B2, “Substituted triazoles as herbicides” (E. I. DU PONT DE NEMOURS AND COMPANY, priority 2012, dated 2016):

Tests used:
Format in all cases: in vivo
rice (Oryza sativa) = test: Test B flooded paddy: rice; settings: Flood, applied to paddy water at 2-leaf stage, visually evaluated after 13 to 15 days
In short: (§1)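 Visual ratings (0 = no effect, 100 = complete control) versus untreated controls were taken 13–15 days after treatment of greenhouse plants. Treatment was added to paddy water held at 3 cm depth on 2-leaf-stage seedlings.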

[1] = test system: velvetleaf (Abutilon theophrasti); test: Test A pre-/postemergence: velvetleaf
In short: (§2)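 Whole-plant greenhouse assay in loam/sand. Preemergence directed soil spray plus simultaneous postemergence spray (one- to two-leaf stage, 2–10 cm). Rated visually ~10 days later, 0 = no effect, 100 = complete control.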

[2] = test system: crabgrass, large (large crabgrass, Digitaria sanguinalis); test: Test A pre-/postemergence: crabgrass, large
In short: as §2

[3] = test system: morningglory (Ipomoea spp.); test: Test A pre-/postemergence: morningglory
In short: as §2

[4] = test system: wheat (Triticum aestivum); test: Test A pre-/postemergence: wheat
In short: as §2

[5] = test system: foxtail, giant (giant foxtail, Setaria faberii); test: Test A pre-/postemergence: foxtail, giant
In short: as §2

[6] = test system: ducksalad (Heteranthera limosa); test: Test B flooded paddy: ducksalad; settings: Flood, applied to paddy water at 2-leaf stage, visually evaluated after 13 to 15 days
In short: as §1

[7] = test system: sedge, umbrella (small-flower umbrella sedge Cyperus difformis); test: Test B flooded paddy: sedge, umbrella; settings: Flood, applied to paddy water at 2-leaf stage, visually evaluated after 13 to 15 days
In short: as §1

[8] = test system: barnyardgrass (Echinochloa crus-galli); test: Test A pre-/postemergence: barnyardgrass
In short: as §2

corn (Zea mays) = test: Test A pre-/postemergence: corn
In short: as §2

[9] = test system: pigweed (Amaranthus retroflexus); test: Test A pre-/postemergence: pigweed
In short: as §2

[10] = test system: barnyardgrass (Echinochloa crus-galli); test: Test B flooded paddy: barnyardgrass; settings: Flood, applied to paddy water at 2-leaf stage, visually evaluated after 13 to 15 days
In short: as §1

[11] = Postemergence, 125 g ai/ha, 0 to 100 scale, 0 is no effect, 100 is complete control
[12] = Postemergence, 500 g ai/ha, visual rating on 0 to 100 scale (0 no effect, 100 complete control), approximately ten days
[13] = Preemergence, 125 g ai/ha, 0 to 100 scale (0 no effect, 100 complete control)
[14] = Preemergence, 500 g ai/ha, 0 to 100 scale, 0 is no effect, 100 is complete control
[15] = Postemergence, 500 g ai/ha, 0 to 100 scale, 0 is no effect, 100 is complete control
[16] = Preemergence, 125 g ai/ha, 0 to 100 scale where 0 is no effect and 100 is complete control
[17] = Preemergence, 500 g ai/ha, 0 to 100 scale (0 no effect, 100 complete control)

COc1nn(-c2ccc(F)cc2)nc1C(=O)c1ccnc(C(F)(F)F)c1 [Compound 24]
0: Plant response rating, Rice (0 to 100 scale, 0 is no effect, 100 is complete control) (rice (Oryza sativa); 250 g ai/ha) | Plant response rating, Velvetleaf [1, 13] | Plant response rating, Velvetleaf [1, 14] | Plant response rating, Crabgrass, Large [2, 13] | Plant response rating, Morningglory [3, 13] | Plant response rating, Morningglory [3, 14] | Plant response rating, Wheat [4, 13] | Plant response rating, Wheat [4, 14] | Plant response rating, Ducksalad (0 to 100 scale, 0 is no effect, 100 is complete control) ([6]; 250 g ai/ha) | Plant response rating, Sedge, Umbrella (0 to 100 scale, 0 is no effect, 100 is complete control) ([7]; 250 g ai/ha) | Barnyardgrass plant response rating [8, 11] | Plant response rating, Barnyardgrass [8, 13] | Plant response rating, Barnyardgrass [8, 14] | Plant response rating, Corn (corn (Zea mays); [13]) | Plant response rating, Corn (corn (Zea mays); [14]) | Plant response rating, Pigweed [9, 13] | Plant response rating, Barnyardgrass (0 to 100 scale, 0 is no effect, 100 is complete control) ([10]; 250 g ai/ha)
40: Pigweed plant response rating [9, 11]
70: Plant response rating, Foxtail, Giant [5, 14]
20: Velvetleaf plant response rating [1, 11] | Velvetleaf plant response rating [1, 12] | Crabgrass, Large plant response rating [2, 12] | Plant response rating, Crabgrass, Large [2, 14] | Morningglory plant response rating [3, 11] | Morningglory plant response rating [3, 12] | Foxtail, Giant plant response rating [5, 12] | Plant response rating, Foxtail, Giant [5, 13] | Barnyardgrass plant response rating [8, 12] | Corn plant response rating (corn (Zea mays); [12]) | Plant response rating, Pigweed [9, 14]
10: Crabgrass, Large plant response rating [2, 11] | Wheat plant response rating [4, 11] | Wheat plant response rating [4, 12] | Foxtail, Giant plant response rating [5, 11] | Corn plant response rating (corn (Zea mays); [11])
90: Pigweed plant response rating [9, 12]

Cc1nn(-c2ccc(F)c(F)c2)nc1Cc1ccnc(C(F)(F)F)c1 [Compound 55]
60: Plant response rating, Rice (0 to 100 scale, 0 is no effect, 100 is complete control) (rice (Oryza sativa); 250 g ai/ha)
70: Plant response rating, Velvetleaf [1, 14] | Plant response rating, Barnyardgrass (0 to 100 scale, 0 is no effect, 100 is complete control) ([10]; 250 g ai/ha)
40: Plant response rating, Velvetleaf [1, 13] | Wheat plant response rating [4, 12] | Plant response rating, Wheat [4, 14]
80: Crabgrass, Large plant response rating [2, 11] | Plant response rating, Morningglory [3, 14]
10: Plant response rating, Wheat [4, 13]
100: Velvetleaf plant response rating [1, 11] | Velvetleaf plant response rating [1, 12] | Plant response rating, Crabgrass, Large [2, 13] | Plant response rating, Crabgrass, Large [2, 14] | Plant response rating, Foxtail, Giant [5, 13] | Plant response rating, Foxtail, Giant [5, 14] | Plant response rating, Ducksalad (0 to 100 scale, 0 is no effect, 100 is complete control) ([6]; 250 g ai/ha) | Plant response rating, Sedge, Umbrella (0 to 100 scale, 0 is no effect, 100 is complete control) ([7]; 250 g ai/ha) | Plant response rating, Barnyardgrass [8, 14] | Pigweed plant response rating [9, 11] | Pigweed plant response rating [9, 12] | Plant response rating, Pigweed [9, 13] | Plant response rating, Pigweed [9, 14]
20: Wheat plant response rating [4, 11] | Corn plant response rating (corn (Zea mays); [11]) | Plant response rating, Corn (corn (Zea mays); [13])
50: Plant response rating, Morningglory [3, 13] | Corn plant response rating (corn (Zea mays); [12]) | Plant response rating, Corn (corn (Zea mays); [14])
90: Crabgrass, Large plant response rating [2, 12] | Foxtail, Giant plant response rating [5, 11] | Foxtail, Giant plant response rating [5, 12] | Barnyardgrass plant response rating [8, 11] | Barnyardgrass plant response rating [8, 12] | Plant response rating, Barnyardgrass [8, 13]

CC(C)Oc1nn(-c2ccc(C(F)(F)F)cc2)nc1Cc1ccnc(C(F)(F)F)c1 [Compound 192]
20: Plant response rating, Velvetleaf [1, 11] | Foxtail, Giant plant response rating [5, 15] | Barnyardgrass plant response rating [8, 15]
40: Plant response rating, Pigweed [9, 11] | Plant response rating, Pigweed [9, 17]
0: Plant response rating, Rice (0 to 100 scale, 0 is no effect, 100 is complete control) (rice (Oryza sativa); 250 g ai/ha) | Plant response rating, Velvetleaf [1, 16] | Plant response rating, Velvetleaf [1, 17] | Plant response rating, Crabgrass, Large [2, 16] | Plant response rating, Morningglory [3, 16] | Plant response rating, Wheat [4, 11] | Plant response rating, Wheat [4, 16] | Plant response rating, Wheat [4, 17] | Plant response rating, Foxtail, Giant [5, 16] | Plant response rating, Ducksalad (0 to 100 scale, 0 is no effect, 100 is complete control) ([6]; 250 g ai/ha) | Plant response rating, Sedge, Umbrella (0 to 100 scale, 0 is no effect, 100 is complete control) ([7]; 250 g ai/ha) | Plant response rating, Barnyardgrass [8, 11] | Plant response rating, Barnyardgrass [8, 16] | Plant response rating, Barnyardgrass [8, 17] | Plant response rating, Corn (corn (Zea mays); [16]) | Plant response rating, Corn (corn (Zea mays); [17]) | Plant response rating, Barnyardgrass (0 to 100 scale, 0 is no effect, 100 is complete control) ([10]; 250 g ai/ha)
30: Crabgrass, Large plant response rating [2, 15] | Plant response rating, Morningglory [3, 11] | Corn plant response rating (corn (Zea mays); [15])
10: Plant response rating, Crabgrass, Large [2, 11] | Plant response rating, Morningglory [3, 17] | Wheat plant response rating [4, 15] | Plant response rating, Foxtail, Giant [5, 11] | Plant response rating, Corn (corn (Zea mays); [11]) | Plant response rating, Pigweed [9, 16]
100: Velvetleaf plant response rating [1, 15] | Pigweed plant response rating [9, 15]
80: Plant response rating, Foxtail, Giant [5, 17]
70: Plant response rating, Crabgrass, Large [2, 17] | Morningglory plant response rating [3, 15]

CCc1nn(-c2ccc(F)c(C(F)(F)F)c2)nc1Oc1ccnc(C(F)(F)F)c1 [Compound 180]
100: Velvetleaf plant response rating [1, 15] | Plant response rating, Crabgrass, Large [2, 16] | Plant response rating, Crabgrass, Large [2, 17] | Plant response rating, Morningglory [3, 11] | Morningglory plant response rating [3, 15] | Plant response rating, Foxtail, Giant [5, 16] | Plant response rating, Foxtail, Giant [5, 17] | Plant response rating, Pigweed [9, 11] | Pigweed plant response rating [9, 15] | Plant response rating, Pigweed [9, 16] | Plant response rating, Pigweed [9, 17]
80: Barnyardgrass plant response rating [8, 15] | Plant response rating, Barnyardgrass [8, 17]
70: Plant response rating, Velvetleaf [1, 11] | Plant response rating, Morningglory [3, 17] | Plant response rating, Sedge, Umbrella (0 to 100 scale, 0 is no effect, 100 is complete control) ([7]; 125 g ai/ha)
20: Plant response rating, Wheat [4, 16] | Plant response rating, Corn (corn (Zea mays); [11]) | Plant response rating, Corn (corn (Zea mays); [17])
90: Plant response rating, Crabgrass, Large [2, 11] | Crabgrass, Large plant response rating [2, 15] | Plant response rating, Foxtail, Giant [5, 11] | Foxtail, Giant plant response rating [5, 15]
0: Plant response rating, Barnyardgrass (0 to 100 scale, 0 is no effect, 100 is complete control) ([10]; 125 g ai/ha)
60: Plant response rating, Velvetleaf [1, 17] | Plant response rating, Ducksalad (0 to 100 scale, 0 is no effect, 100 is complete control) ([6]; 125 g ai/ha) | Plant response rating, Barnyardgrass [8, 16]
10: Plant response rating, Corn (corn (Zea mays); [16])
40: Plant response rating, Morningglory [3, 16] | Wheat plant response rating [4, 15] | Plant response rating, Wheat [4, 17]
30: Plant response rating, Rice (0 to 100 scale, 0 is no effect, 100 is complete control) (rice (Oryza sativa); 125 g ai/ha) | Plant response rating, Wheat [4, 11] | Corn plant response rating (corn (Zea mays); [15])
50: Plant response rating, Velvetleaf [1, 16] | Plant response rating, Barnyardgrass [8, 11]
